Here are results for 8 compounds from patent US20110190280A1, “Thiazole And Oxazole Kinase Inhibitors” (priority 2007, published 2011).

One assay has as its target B-Raf (Homo sapiens, UniProt P15056). Description: B-Raf Accelerated MEK ATPase assay (BRAMA). The note with it: BRAMA enzyme assay; class by pIC50; read-out: B-Raf Activity. Type of assay: biochemical. An outline of the steps:
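B-Raf activity read as intrinsic MEK ATPase: catalytic activated RAF with non-phosphorylated MEK drives ADP formation, coupled through pyruvate kinase and lactate dehydrogenase to NADH oxidation, independent of ERK phosphorylation.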

For another assay, the target named is EGFR (Homo sapiens, UniProt P00533). Put plainly: EGFR kinase autophosphorylation assay (peptide phosphorylation, HTRF). Type of assay: biochemical. To be noted: 0.8 nM EGFR, class by pIC50. As to the method: (§1) A selection of compounds of the present invention were tested for inhibitory activity against EGFR and ErbB2 kinases in autophosphorylation assays.
(§2) The method measures the ability of the isolated enzyme to catalyse the transfer of the gamma-phosphate from ATP onto the tyrosine residue of a biotinylated synthetic peptide referenced “Peptide C” in Brignola, P. S., et al, (2002) J. Biol. Chem. 277(2):1576-1585. The extent of tyrosine phosphorylation was measured using an anti-phosphotyrosine antibody, and quantified by homogenous time-resolved fluorescence (HTRF).
(§3) Reactions were performed in black 384-well polystyrene flat-bottom plates in a final volume of 20 ul. Assays were performed by adding 10 μl of each of the following solutions, substrate Mix and enzyme mix: The Substrate mix contained 100 mM 3-[N-morpholino]propanesulfonic acid (MOPS) (pH 7.5), 2 mM MnCl2, 20 μM ATP, 0.01% Tween-20, 0.1 mg/mL (BSA), 0.8 uM peptide substrate, and 1 mM dithiothreitol. The enzyme mix contained 100 mM MOPS (pH7.5); 0.01% Tween-20; 0.1 mg/mL BSA, and either 0.8 nM EGFR, 10 nM ErbB2, or 1 nM ErbB4
(§4) The enzyme mix was added to the compound plates and the plates were incubated at 20° C. for 1 hour. The reactions were allowed to proceed for 90 minutes at 20° C. The reactions were then terminated by the addition of 20 μl 100 mM EDTA to each well. 40 μl/well of HTRF detection mix were added to the assay plates. The final concentrations of the detection reagents were: 100 mM HEPES (pH7.5), 0.1 mg/mL BSA, 15 nM streptavidin-labeled allophycocyanin (PerkinElmer), and 1 nM europium-labeled anti-phosphotyrosine antibody (PerkinElmer). Assay plates were left unsealed and were counted in a Wallac Multilabel Counter 1420 (PerkinElmer).
(§5) Compounds under analysis were dissolved in Me2SO to 1.0 mM and serially diluted 1 to 3 with Me2SO through twelve dilutions. 1 μl of each concentration was transferred to the corresponding well of an assay plate. This creates a final compound concentration range from 0.00027 to 47.6 μM.
(§6) The data for dose responses were plotted as % Inhibition calculated with the data reduction formula 100*(1−(U1−C2)/(C1−C2)) versus concentration of compound where U is the unknown value, C1 is the average control value obtained for 4.76% DMSO, and C2 is the average control value obtained for 0.035 M EDTA. Data were fitted with a curve described by:
(§7) where Vmax is the upper asymptote, Y2 is the Y intercept, and K is the IC50. The results for each compound were recorded as pIC50s, calculated as follows: […]
(§8) In the following table: • “+” indicates no pIC50 measurement greater than 6 against EGFR or ErbB2, • “++” indicates at least one pIC50 measurement greater than 6 against EGFR or ErbB2 but no measurement greater than pIC50 of 7; and • “+++” indicates at least one pIC50 measurement of greater than 7 against EGFR or ErbB2.
On the technique in general: TR-FRET usually uses a lanthanide donor and a delayed reading to cut background.

The target in another assay is ErbB2 (Homo sapiens, UniProt P04626). Put plainly: ErbB2 kinase autophosphorylation assay (peptide phosphorylation, HTRF). The note with it: 10 nM ErbB2, HTRF; class by pIC50. It is filed as biochemical. On the procedure:
as §1, §2, §3, §4, §5, §6, §7, §8

Another assay deals with A375P tumor cells. Put plainly: Cell growth inhibition assay (CellTiter-Glo), A375P.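 Note: total ATP luminescence used as proxy for cell number, serial threefold compound dilutions at 0.2% DMSO, growth inhibition expressed versus DMSO vehicle-treated wells.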 To be noted: Homo sapiens, 72 h, read-out: Activity in A375P Tumor Cells.
Another assay concerns HT-29 tumor cells. Description: Cell growth inhibition assay (CellTiter-Glo), HT-29.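 Note: ATP content read by luminescence as proxy for cell number, growth inhibition versus DMSO vehicle wells, 0.2% DMSO final, nine serial threefold compound dilutions.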 To be noted: Homo sapiens, HT-29, 72 h, read-out: Activity in HT-29 Tumor Cells. On the technique in general: Cellular ATP, detected with luciferase, serves as a proxy for viable cell number.
The test system of the next assay is Colo205 tumor cells. Put plainly: Cell growth inhibition assay (CellTiter-Glo), Colo205.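 Note: growth measured via total ATP luminescence (CellTiter-Glo) as a proxy for cell number, inhibition expressed against DMSO-treated control wells, 3-day exposure at 0.2% final DMSO.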 To be noted: Homo sapiens, COLO 205, 72 h, read-out: Activity in Colo205 Tumor Cells.
For the next assay, the system named is SK-MEL-3 tumor cells. Description: Cell growth inhibition assay (CellTiter-Glo), SK-MEL-3.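 Note: human melanoma cells grown with compound for 3 days in 0.2% DMSO, total ATP read by luminescence as proxy for cell number, growth inhibition versus DMSO-treated wells.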 To be noted: Homo sapiens, SK-MEL3, 72 h, read-out: Activity in SK-MEL-3 Tumor Cells.
In the next assay the test system is SK-MEL-28 tumor cells. Put plainly: Cell growth inhibition assay (CellTiter-Glo), SK-MEL-28.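 Note: luminescent total ATP as a proxy for cell number, threefold serial dilutions at 0.2% DMSO, percent growth inhibition versus DMSO vehicle control wells.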 To be noted: Homo sapiens, SK-MEL-28, 72 h, read-out: Activity in SK-MEL-28 Tumor Cells.

Where a name gives a salt, the structure may show the parent alone.

Sequence of B-Raf (P15056 whole entry): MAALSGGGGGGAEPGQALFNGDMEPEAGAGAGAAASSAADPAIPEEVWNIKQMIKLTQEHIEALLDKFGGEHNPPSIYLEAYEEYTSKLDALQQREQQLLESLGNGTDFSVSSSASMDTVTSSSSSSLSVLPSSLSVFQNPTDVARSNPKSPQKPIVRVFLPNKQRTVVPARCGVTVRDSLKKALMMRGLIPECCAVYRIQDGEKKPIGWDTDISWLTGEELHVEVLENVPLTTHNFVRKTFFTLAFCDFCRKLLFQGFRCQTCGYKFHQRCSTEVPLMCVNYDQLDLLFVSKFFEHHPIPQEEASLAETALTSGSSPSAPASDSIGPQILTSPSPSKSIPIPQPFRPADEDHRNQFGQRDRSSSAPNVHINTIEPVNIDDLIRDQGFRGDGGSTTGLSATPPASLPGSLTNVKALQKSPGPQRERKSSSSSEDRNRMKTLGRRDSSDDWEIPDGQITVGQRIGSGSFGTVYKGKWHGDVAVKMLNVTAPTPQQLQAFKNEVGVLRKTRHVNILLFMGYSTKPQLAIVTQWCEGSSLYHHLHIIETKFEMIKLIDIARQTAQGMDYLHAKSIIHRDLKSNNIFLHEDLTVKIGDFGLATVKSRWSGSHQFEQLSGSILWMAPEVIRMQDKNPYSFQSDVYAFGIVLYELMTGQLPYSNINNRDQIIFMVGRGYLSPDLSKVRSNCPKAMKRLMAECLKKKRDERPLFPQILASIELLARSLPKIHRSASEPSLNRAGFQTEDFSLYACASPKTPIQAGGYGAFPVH
Sequence of ErbB2 (P04626 23-1255): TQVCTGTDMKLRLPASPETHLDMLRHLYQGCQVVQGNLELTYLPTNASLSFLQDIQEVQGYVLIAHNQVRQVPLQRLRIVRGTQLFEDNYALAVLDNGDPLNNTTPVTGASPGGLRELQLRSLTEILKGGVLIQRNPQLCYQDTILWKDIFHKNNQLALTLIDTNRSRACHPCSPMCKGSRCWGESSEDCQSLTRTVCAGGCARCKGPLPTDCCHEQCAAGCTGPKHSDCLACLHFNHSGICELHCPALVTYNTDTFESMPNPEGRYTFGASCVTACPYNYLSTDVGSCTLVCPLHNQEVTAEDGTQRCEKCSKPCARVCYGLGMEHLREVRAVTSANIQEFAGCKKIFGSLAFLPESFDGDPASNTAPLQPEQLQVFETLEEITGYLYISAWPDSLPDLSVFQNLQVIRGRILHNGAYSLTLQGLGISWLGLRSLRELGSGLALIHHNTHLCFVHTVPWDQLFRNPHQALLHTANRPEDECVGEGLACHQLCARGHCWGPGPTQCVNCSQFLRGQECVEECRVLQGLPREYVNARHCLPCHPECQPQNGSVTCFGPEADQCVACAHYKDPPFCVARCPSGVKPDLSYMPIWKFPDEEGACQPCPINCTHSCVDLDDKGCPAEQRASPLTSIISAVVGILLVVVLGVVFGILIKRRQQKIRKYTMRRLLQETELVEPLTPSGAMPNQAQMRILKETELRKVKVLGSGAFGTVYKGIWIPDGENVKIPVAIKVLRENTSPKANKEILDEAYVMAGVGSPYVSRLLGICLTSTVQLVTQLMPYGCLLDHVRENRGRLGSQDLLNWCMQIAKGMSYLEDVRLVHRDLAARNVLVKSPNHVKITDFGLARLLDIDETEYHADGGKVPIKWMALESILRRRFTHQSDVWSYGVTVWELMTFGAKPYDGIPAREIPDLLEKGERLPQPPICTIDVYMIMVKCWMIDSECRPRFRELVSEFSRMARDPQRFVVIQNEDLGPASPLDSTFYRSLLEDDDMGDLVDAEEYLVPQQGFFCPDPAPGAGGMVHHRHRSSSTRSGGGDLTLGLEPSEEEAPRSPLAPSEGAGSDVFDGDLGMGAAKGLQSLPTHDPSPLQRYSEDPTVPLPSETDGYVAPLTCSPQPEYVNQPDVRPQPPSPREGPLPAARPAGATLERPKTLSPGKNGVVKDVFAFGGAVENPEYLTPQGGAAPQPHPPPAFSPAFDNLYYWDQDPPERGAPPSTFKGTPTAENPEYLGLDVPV
Sequence of EGFR (P00533 25-1210): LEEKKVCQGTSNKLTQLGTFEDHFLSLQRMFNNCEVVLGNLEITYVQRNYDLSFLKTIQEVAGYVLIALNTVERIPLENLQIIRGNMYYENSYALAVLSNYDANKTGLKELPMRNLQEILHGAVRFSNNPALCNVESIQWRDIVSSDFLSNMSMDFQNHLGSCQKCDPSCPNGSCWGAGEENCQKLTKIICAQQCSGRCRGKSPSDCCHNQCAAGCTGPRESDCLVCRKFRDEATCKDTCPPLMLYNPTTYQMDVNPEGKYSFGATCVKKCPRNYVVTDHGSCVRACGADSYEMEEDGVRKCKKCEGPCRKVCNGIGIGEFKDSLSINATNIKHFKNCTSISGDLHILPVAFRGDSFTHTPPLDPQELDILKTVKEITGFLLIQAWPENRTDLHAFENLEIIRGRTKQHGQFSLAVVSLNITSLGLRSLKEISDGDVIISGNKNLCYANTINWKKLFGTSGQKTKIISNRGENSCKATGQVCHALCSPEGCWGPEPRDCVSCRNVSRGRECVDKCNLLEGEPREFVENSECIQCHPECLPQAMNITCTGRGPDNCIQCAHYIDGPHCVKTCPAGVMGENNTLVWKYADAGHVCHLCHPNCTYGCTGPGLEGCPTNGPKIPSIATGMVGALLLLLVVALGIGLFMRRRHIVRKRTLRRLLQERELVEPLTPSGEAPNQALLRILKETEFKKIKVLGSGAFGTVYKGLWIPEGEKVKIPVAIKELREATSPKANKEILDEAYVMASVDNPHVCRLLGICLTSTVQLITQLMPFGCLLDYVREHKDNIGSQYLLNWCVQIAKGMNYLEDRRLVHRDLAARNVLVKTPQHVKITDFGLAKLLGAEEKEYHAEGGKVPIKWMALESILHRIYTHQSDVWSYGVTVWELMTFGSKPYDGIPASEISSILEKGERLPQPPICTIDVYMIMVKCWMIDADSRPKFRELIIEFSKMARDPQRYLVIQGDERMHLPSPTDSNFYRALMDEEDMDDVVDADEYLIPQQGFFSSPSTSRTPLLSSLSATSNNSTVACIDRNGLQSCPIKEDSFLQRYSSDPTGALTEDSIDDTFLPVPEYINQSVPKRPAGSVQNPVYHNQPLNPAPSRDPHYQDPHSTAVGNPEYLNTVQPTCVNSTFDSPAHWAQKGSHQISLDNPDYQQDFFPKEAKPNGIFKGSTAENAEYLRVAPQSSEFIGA
Procedure for HT-29 tumor cells: (§9) Cell Growth Inhibition Assays Human colon tumor cells (Colo205) were cultured in RPMI (Mediatech 50-020-PB) containing 10% FBS and 1% penicillin-streptomycin. […] Human melanoma cancer cells (A375-F11S) were cultured in RPMI (Mediatech 50-020-PB) containing 10% FBS, 1% sodium pyruvate, and 1% penicillin-streptomycin. Human colon cancer cells (HT-29) were cultured in high glucose DMEM (Mediatech 50-013-PB) containing 10% FBS and 1% penicillin-streptomycin. Human melanoma cancer cells (SK-MEL-3) were cultured in McCoy's 5A (50-025-PB) containing 15% FBS, and 1% penicillin-streptomycin. All cell lines were maintained at 37° C. in a humidified 5% CO2, 95% air incubator.
(§10) The next day, compounds were diluted as follows: For 96-well assays, 13.5 μl of compound in DMSO were diluted using nine (9) serial 1:3 dilutions of 4.5 μl in 9 μl of DMSO. Medium (270 μl/well of RPMI with 10% FBS and 1% penicillin-streptomycin) was added to the plates. Aliquots (7 μl) were added to cells in the final assay giving a final DMSO concentration of 0.2%. For 384-well assays, 15 μl of compound in DMSO were diluted using nine (9) serial 1:3 dilutions of 5 μl in 10 μl of DMSO, followed by a further dilution of 5 μl of compound with 95 μl of medium, of which 2 μl are added to cells in the final assay giving a final DMSO concentration of 0.2%. Cells were incubated at 37° C., 5% CO2 for 3 days.
(§11) Total ATP was measured (as a surrogate estimate of cell number) using CellTiter-Glo® (Promega G7571) reagent. Briefly, plates were removed from the incubator and allowed to equilibrate to room temperature for 30 minutes. CellTiter-Glo® (25 μl or 55 μl for 384-well or 96-well assays, respectively) reagent was added to each well and plates were shaken on an orbital plate shaker for 2 minutes. Plates were incubated without shaking for a further 30 minutes and read on an LJL Analyst GT reader in luminometer mode with an integration time of 0.5 seconds per well. Percent inhibition of cell growth was calculated relative to DMSO vehicle-treated control wells.
Procedure for SK-MEL-3 tumor cells: as §9, §10, §11

As for `CCNc1nc(-c2cc(C)cc(OC)c2)c(-c2ccnc(Nc3ccc(N4CCS(=O)(=O)CC4)nc3)n2)s1` [Example 34, N-[6-(1,1-Dioxido-4-thiomorpholinyl)-3-pyridinyl]-4-{2-(ethylamino)-4-[3-methyl-5-(methyloxy)phenyl]-1,3-thiazol-5-yl}-2-pyrimidinamine], the IC50 was < 100 nM on B-Raf; > 1000 nM against EGFR; > 1000 nM on ErbB2; < 500 nM in the assay on A375P tumor cells; < 500 nM with HT-29 tumor cells; < 500 nM with Colo205 tumor cells. In addition, the IC50 with SK-MEL-3 tumor cells and in the assay on SK-MEL-28 tumor cells was < 500 nM each time.
For the compound `CCNc1nc(-c2cccc(O)c2)c(-c2ccnc(Nc3ccc(OCCN4CCCC4)c(Cl)c3)n2)s1` [Example 44], the IC50 was < 100 nM on B-Raf; < 100 nM at EGFR; < 100 nM against ErbB2; < 500 nM in the assay with A375P tumor cells; < 500 nM in the assay on HT-29 tumor cells; < 500 nM with Colo205 tumor cells. For the same compound, the IC50 with SK-MEL-3 tumor cells and in the assay on SK-MEL-28 tumor cells was < 500 nM each time.
Turning to `CCNc1nc(-c2cc(OC)cc(OC)c2)c(-c2ccnc(Nc3cc(F)c(N4CCN(CCS(C)(=O)=O)CC4)c(F)c3)n2)o1` [Example 91], the IC50 on B-Raf is < 100 nM; on EGFR it was > 1000 nM; on ErbB2, > 1000 nM; in the assay on A375P tumor cells it was 500 to 5000 nM; in the assay with HT-29 tumor cells, 500 to 5000 nM; in the assay on Colo205 tumor cells, < 500 nM. Further, the IC50 in the assay on SK-MEL-3 tumor cells was < 500 nM; in the assay on SK-MEL-28 tumor cells it was 500 to 5000 nM.
Take `CCNc1nc(-c2cc(OC)cc(OC)c2)c(-c2ccnc(Nc3ccc(N4CCN(C(C)=O)CC4)nc3)n2)s1` [Example 4, N-[6-(4-Acetyl-1-piperazinyl)-3-pyridinyl]-4-[4-[3,5-bis(methyloxy)phenyl]-2-(ethylamino)-1,3-thiazol-5-yl]-2-pyrimidinamine]: the IC50 at B-Raf is < 100 nM; against EGFR, > 1000 nM; on ErbB2, > 1000 nM; in the assay with A375P tumor cells, < 500 nM; in the assay with HT-29 tumor cells it was < 500 nM; with Colo205 tumor cells it was < 500 nM. For the same compound, the IC50 with SK-MEL-3 tumor cells and in the assay with SK-MEL-28 tumor cells was < 500 nM in each case.
`CCNc1nc(-c2cccc(OC)c2)c(-c2ccnc(Nc3ccc(OCCN4CCCC4)c(F)c3)n2)s1` [Example 72, 4-{2-(Ethylamino)-4-[3-(methyloxy)phenyl]-1,3-thiazol-5-yl}-N-(3-fluoro-4-{[2-(1-pyrrolidinyl)ethyl]oxy}phenyl)-2-pyrimidinamine]: the IC50 is < 100 nM on B-Raf; < 100 nM against EGFR; < 100 nM at ErbB2; < 500 nM with A375P tumor cells; < 500 nM with HT-29 tumor cells; < 500 nM in the assay with Colo205 tumor cells. The IC50 with SK-MEL-3 tumor cells was < 500 nM; in the assay on SK-MEL-28 tumor cells, 500 to 5000 nM.
For the compound `COc1cc(C)cc(-c2nc(C(C)C)sc2-c2ccnc(Nc3ccc(N4CCOCC4)nc3)n2)c1` [Example 61, 4-{2-(1-Methylethyl)-4-[3-methyl-5-(methyloxy)phenyl]-1,3-thiazol-5-yl}-N-[6-(4-morpholinyl)-3-pyridinyl]-2-pyrimidinamine], the IC50 at B-Raf was < 100 nM; on EGFR it was > 1000 nM; against ErbB2, > 1000 nM; in the assay on A375P tumor cells, < 500 nM; with HT-29 tumor cells, < 500 nM; in the assay on Colo205 tumor cells, < 500 nM. In addition, the IC50 is < 500 nM with SK-MEL-3 tumor cells and 500 to 5000 nM with SK-MEL-28 tumor cells.
Turning to `CCc1nc(-c2cc(O)cc(OC)c2)c(-c2ccnc(Nc3ccc(OC4CCN(CCS(C)(=O)=O)CC4)c(F)c3)n2)s1` [Example 74, trifluoroacetic acid salt], the IC50 on B-Raf was < 100 nM; against EGFR, > 1000 nM; at ErbB2 it was > 1000 nM; with A375P tumor cells, < 500 nM; in the assay with HT-29 tumor cells it was < 500 nM; in the assay on Colo205 tumor cells it was < 500 nM. The IC50 in the assay with SK-MEL-3 tumor cells and in the assay on SK-MEL-28 tumor cells was < 500 nM in each case.
As to `CCNc1nc(-c2cc(C)cc(OC)c2)c(-c2ccnc(Nc3ccc(N4CCN(C(C)=O)CC4)nc3)n2)s1` [Example 36, N-[6-(4-Acetyl-1-piperazinyl)-3-pyridinyl]-4-{2-(ethylamino)-4-[3-methyl-5-(methyloxy)phenyl]-1,3-thiazol-5-yl}-2-pyrimidinamine], the IC50 at B-Raf was < 100 nM; on EGFR it was > 1000 nM; against ErbB2 it was > 1000 nM; in the assay on A375P tumor cells, < 500 nM; in the assay on HT-29 tumor cells, < 500 nM; in the assay on Colo205 tumor cells, < 500 nM. For the same compound, the IC50 in the assay on SK-MEL-3 tumor cells and with SK-MEL-28 tumor cells was < 500 nM in each case.
